Experimental data from paper PMC5404542, “In Vitro and In Vivo Antifungal Profile of a Novel and Long-Acting Inhaled Azole, PC945, on Aspergillus fumigatus Infection” (Antimicrobial Agents and Chemotherapy, 2017).
Converted amounts (≈) assume the structure as drawn.

Tests used:
[1] = tested on: Penicillium chrysogenum (ATCC 9480); assay: MIC, CLSI; type: cell-based; settings: ATCC9480, 1 strain
[2] = tested on: Aureobasidium pullulans (ATCC 9348); assay: MIC, CLSI; type: cell-based; settings: ATCC9348, 1 strain
[3] = tested on: Candida krusei (ATCC 6258); assay: MIC, CLSI; type: cell-based; settings: Pichia kudriavzevii, ATCC6258; 1 strain, CLSI; read-out: MIC
[4] = tested on: Cryptococcus gattii (clinical isolate); assay: MIC, EUCAST; type: cell-based; settings: 1 strain
[5] = Precipitation in EUCAST medium; type: physicochemical
Plasma protein binding = type: in vitro ADME
[6] = Systemic exposure after topical/intranasal treatment; type: in vivo; settings: data not shown
AfCYP51A = AfCYP51A (Aspergillus fumigatus, UniProt Q4WNT5); assay: A. fumigatus CYP51 binding assay (ligand titration, type II difference spectra); set-up: made in house
Protocol: A. fumigatus CYP51 binding properties were determined as described by Warrilow et al. ([35]). Test agents were titrated against 4 μM recombinant A. fumigatus CYP51A or CYP51B protein, and binding saturation curves were constructed from the change in the absorbance between the spectral peak and the trough. A rearrangement of the Morrison equation was used to determine the dissociation constant (Kd) values when ligand binding was tight ([36]).

[7] = tested on: A. fumigatus hyphae (NCPF2010); assay: Persistence of action on A. fumigatus hyphae (resazurin-based microtiter assay); settings: for IC50: Aspergillus fumigatus, NCPF2010, 16 h, read-out: Hyphae IC50, No washout; for Hyphae Fold change: washout versus no washout
Protocol: The persistence of action of test agents was calculated for A. fumigatus hyphae (NCPF2010). […] The plates were incubated for exactly 20 min at 35°C and 5% CO2. After the incubation time had elapsed, all wells on the designated washout plate were aspirated, and growth medium (100 μl/well) was added across the plate. […] Resazurin (0.04%; diluted in growth medium) was added to all wells of both nonwashout and washout plates (5 μl/well) to give a final concentration of 0.002% resazurin. The plates were incubated at 35°C and 5% CO2 for 16 h. […] The percent inhibition for each well was calculated, and the IC50 was calculated from the concentration-response curve generated for each test compound by use of a four-parameter logistic equation (Dotmatics, Bishops Stortford, United Kingdom).

AfCYP51A, sequence (Q4WNT5 whole entry): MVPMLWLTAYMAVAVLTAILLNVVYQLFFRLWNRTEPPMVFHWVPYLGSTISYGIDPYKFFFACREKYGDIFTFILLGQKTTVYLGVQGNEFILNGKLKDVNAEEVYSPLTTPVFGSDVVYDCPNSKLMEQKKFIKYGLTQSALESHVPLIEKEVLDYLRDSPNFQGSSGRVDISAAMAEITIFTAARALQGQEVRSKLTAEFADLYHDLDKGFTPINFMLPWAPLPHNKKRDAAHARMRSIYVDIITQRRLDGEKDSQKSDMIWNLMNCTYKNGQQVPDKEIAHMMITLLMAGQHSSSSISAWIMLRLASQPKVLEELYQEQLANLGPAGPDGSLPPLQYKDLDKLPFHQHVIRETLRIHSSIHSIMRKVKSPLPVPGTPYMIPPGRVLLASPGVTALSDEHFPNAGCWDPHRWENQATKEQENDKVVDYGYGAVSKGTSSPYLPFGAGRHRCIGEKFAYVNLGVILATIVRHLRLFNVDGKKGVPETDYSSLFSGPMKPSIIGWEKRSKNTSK

Structure (SMILES)	MIC [1] [µg/mL]	MIC [2] [µg/mL]	MIC [3] [µg/mL]	MIC [4] [µg/mL]	concentration at which compound precipitated in EUCAST medium [5] [ng/mL]	plasma protein binding (Plasma protein binding)	systemic exposure [6]	Kd (AfCYP51A) [nM]	difference spectra on titration against purified CYP51A (AfCYP51A)	IC50 [7] [µg/mL]	fold more potent than posaconazole at inhibiting hyphal growth ([7]; no washout) [fold]	fold more potent than voriconazole at inhibiting hyphal growth ([7]; no washout) [fold]	Hyphae Fold change [7] [fold]	Hyphae Fold change ([7]; listed as posaconazole) [fold]
Cc1cc(N2CCN(c3ccc(C(=O)Nc4ccc(F)cc4)cc3)CC2)ccc1OC[C@@H]1CO[C@@](Cn2cncn2)(c2ccc(F)cc2F)C1 [PC945, 4-[4-(4-{[(3R,5R)-5-(2,4-difluorophenyl)-5-(1H-1,2,4-triazol-1-ylmethyl)oxolan-3-yl]methoxy}-3-methylphenyl)piperazin-1-yl]-N-(4-fluorophenyl)benzamide]	> 8	> 8	0.125 (≈ 0.183 µM)	0.25 (≈ 0.366 µM)	> 4000	high levels of plasma protein binding	very low systemic exposure	500	type II difference spectra	0.0001 (≈ 0.000146 µM)	4.5	110		
CC[C@@H]([C@H](C)O)n1ncn(-c2ccc(N3CCN(c4ccc(OC[C@@H]5CO[C@@](Cn6cncn6)(c6ccc(F)cc6F)C5)cc4)CC3)cc2)c1=O [Posaconazole, posaconazole]	0.13 (≈ 0.186 µM)	1 (≈ 1.43 µM)		0.5 (≈ 0.713 µM)				960		0.00045 (≈ 0.000642 µM)			4.90	4.9
